Test [1] deals with Pseudomonas aeruginosa. Description: Antibacterial activity against Pseudomonas aeruginosa ATCC 27853 at 40 ug/disk after 18 to 24 hr by disk diffusion method. Type of test: functional. The following applies: read-out: DIZ.
The subject of test [2] is Escherichia coli. Description: Antibacterial activity against Escherichia coli ATCC 25922 at 40 ug/disk after 18 to 24 hr by disk diffusion method. The class given is functional. The following applies: read-out: DIZ.
Test [3] relates to Pseudomonas fluorescens. Description: Antibacterial activity against Pseudomonas fluorescens ATCC 49838 at 40 ug/disk after 18 to 24 hr by disk diffusion method. The class given is functional. The following applies: read-out: DIZ.
The test system of test [4] is Klebsiella pneumoniae. Description: Antibacterial activity against Klebsiella pneumoniae ATCC 13883 at 40 ug/disk after 18 to 24 hr by disk diffusion method. The class given is functional. The following applies: read-out: DIZ. In general terms: In agar diffusion tests the substance spreads into inoculated agar from a disc or well.
Test [5] concerns Staphylococcus aureus. Description: Antibacterial activity against Staphylococcus aureus ATCC 25923 at 40 ug/disc after 18 to 24 hr by disk diffusion method. The class given is functional. The following applies: read-out: DIZ.
Test [6] concerns Bacillus cereus. In words: Antibacterial activity against Bacillus cereus ATCC 11778 at 40 ug/disk after 18 to 24 hr by disk diffusion method. The class given is functional. The settings on record: read-out: DIZ.
The subject of test [7] is Candida albicans. In words: Antifungal activity against Candida albicans ATCC 90028 after 18 to 24 hr by broth microdilution method. Type of test: functional. In general terms: In broth dilution the organism is exposed to a series of concentrations in liquid medium.
Test [8] has as its system Enterococcus faecalis. In words: Antibacterial activity against Enterococcus faecalis ATCC 29212 at 40 ug/disk after 18 to 24 hr by disk diffusion method. The class given is functional. The following applies: read-out: DIZ.
Test [9] relates to Bacillus subtilis. Description: Antibacterial activity against Bacillus subtilis ATCC 6633 at 40 ug/disk after 18 to 24 hr by disk diffusion method. The settings on record: read-out: DIZ. Type of test: functional.
Test [10] relates to Staphylococcus epidermidis. In words: Antibacterial activity against Staphylococcus epidermidis ATCC 12228 at 40 ug/disk after 18 to 24 hr by disk diffusion method. The settings on record: read-out: DIZ. Type of test: functional.
Test [11] relates to Klebsiella aerogenes. In words: Antibacterial activity against Enterobacter aerogenes ATCC 13048 at 40 ug/disk after 18 to 24 hr by disk diffusion method. The following applies: read-out: DIZ. The class given is functional.
The subject of test [12] is Candida albicans. In words: microbe, parasite or virus in culture. The settings on record: ATCC 90028, read-out: DIZ.
Description: Antifungal activity against Candida albicans ATCC 90028 at 40 ug/disk after 18 to 24 hr by disk diffusion method
For test [13], the system named is Pseudomonas aeruginosa. In words: Antibacterial activity against Pseudomonas aeruginosa ATCC 27853 after 18 to 24 hr by broth microdilution method. The class given is functional.
The subject of test [14] is Klebsiella pneumoniae. Description: Antibacterial activity against Klebsiella pneumoniae ATCC 13883 after 18 to 24 hr by broth microdilution method. The class given is functional.
Test [15] has as its system Pseudomonas fluorescens. In words: Antibacterial activity against Pseudomonas fluorescens ATCC 49838 after 18 to 24 hr by broth microdilution method. Type of test: functional.
The test system of test [16] is Klebsiella aerogenes. Description: Antibacterial activity against Enterobacter aerogenes ATCC 13048 after 18 to 24 hr by broth microdilution method. The class given is functional.
Test [17] concerns Enterococcus faecalis. In words: Antibacterial activity against Enterococcus faecalis ATCC 29212 after 18 to 24 hr by broth microdilution method. The class given is functional.
Test [18] concerns Staphylococcus aureus. Description: Antibacterial activity against Staphylococcus aureus ATCC 25923 after 18 to 24 hr by broth microdilution method. The class given is functional.
For test [19], the system named is Bacillus subtilis. Description: Antibacterial activity against Bacillus subtilis ATCC 6633 at 30 ug/disk after 18 to 24 hr by disk diffusion method. Type of test: functional. The settings on record: for zone of inhibition at 30 µg/disc: read-out: DIZ.
For test [20], the system named is Bacillus cereus. In words: Antibacterial activity against Bacillus cereus ATCC 11778 at 30 ug/disk after 18 to 24 hr by disk diffusion method. Type of test: functional. The settings on record: for zone of inhibition at 30 µg/disc: read-out: DIZ.
For test [21], the system named is Enterococcus faecalis. Description: Antibacterial activity against Enterococcus faecalis ATCC 29212 at 30 ug/disk after 18 to 24 hr by disk diffusion method. The settings on record: for zone of inhibition at 30 µg/disc: read-out: DIZ. The class given is functional.
The test system of test [22] is Staphylococcus aureus. In words: Antibacterial activity against Staphylococcus aureus ATCC 25923 at 30 ug/disk after 18 to 24 hr by disk diffusion method. Type of test: functional. The following applies: for zone of inhibition at 30 µg/disc: read-out: DIZ.
Test [23] concerns Candida albicans. Description: Antifungal activity against Candida albicans ATCC 90028 at 30 ug/disk after 18 to 24 hr by disk diffusion method. The settings on record: for zone of inhibition at 30 µg/disc: read-out: DIZ. Type of test: functional.
Test [24] relates to Pseudomonas aeruginosa. Description: Antibacterial activity against Pseudomonas aeruginosa ATCC 27853 at 30 ug/disk after 18 to 24 hr by disk diffusion method. The class given is functional. The settings on record: for zone of inhibition at 30 µg/disc: read-out: DIZ.
The test system of test [25] is Escherichia coli. Description: Antibacterial activity against Escherichia coli ATCC 25922 at 30 ug/disk after 18 to 24 hr by disk diffusion method. Type of test: functional. The settings on record: for zone of inhibition at 30 µg/disc: read-out: DIZ.
Test [26] deals with Klebsiella pneumoniae. Description: Antibacterial activity against Klebsiella pneumoniae ATCC 13883 at 30 ug/disk after 18 to 24 hr by disk diffusion method. The class given is functional. The following applies: for zone of inhibition at 30 µg/disc: read-out: DIZ.
Test [27] concerns Klebsiella aerogenes. Description: Antibacterial activity against Enterobacter aerogenes ATCC 13048 at 30 ug/disk after 18 to 24 hr by disk diffusion method. The class given is functional. The following applies: for zone of inhibition at 30 µg/disc: read-out: DIZ.
Test [28] has as its system Pseudomonas fluorescens. In words: Antibacterial activity against Pseudomonas fluorescens ATCC 49838 at 30 ug/disk after 18 to 24 hr by disk diffusion method. Type of test: functional. The settings on record: for zone of inhibition at 30 µg/disc: read-out: DIZ.
For test [29], the system named is Staphylococcus epidermidis. Description: Antibacterial activity against Staphylococcus epidermidis ATCC 12228 at 30 ug/disk after 18 to 24 hr by disk diffusion method. The following applies: for zone of inhibition at 30 µg/disc: read-out: DIZ. The class given is functional.
Test [30] concerns Bacillus subtilis. In words: Antibacterial activity against Bacillus subtilis ATCC 6633 after 18 to 24 hr by broth microdilution method. Type of test: functional.
For test [31], the system named is Escherichia coli. Description: Antibacterial activity against Escherichia coli ATCC 25922 after 18 to 24 hr by broth microdilution method. Type of test: functional.
Test [32] has as its system Staphylococcus epidermidis. Description: Antibacterial activity against Staphylococcus epidermidis ATCC 12228 after 18 to 24 hr by broth microdilution method. The class given is functional.

Converted amounts (≈) assume the structure as drawn.

For the compound `Clc1ccc(COC(Cn2ccnc2)c2ccc(Cl)cc2Cl)c(Cl)c1` (stereo unspecified) [MICONAZOLE], the zone of inhibition at 40 µg/disc in the test with Pseudomonas aeruginosa [1], with Escherichia coli [2], in the test with Pseudomonas fluorescens [3], with Klebsiella pneumoniae [4], in the test with Staphylococcus aureus [5] and with Bacillus cereus [6] was 0 mm throughout. Moreover, the zone of inhibition at 40 µg/disc came out at 0 mm in the test with Enterococcus faecalis [8]; 0 mm in the test with Bacillus subtilis [9]; 0 mm in test [10]; 0 mm with Klebsiella aerogenes [11]; 26 mm in the test on Candida albicans [12]. Also, in the test on Candida albicans [7], the MIC – broadly, the lowest concentration found to suppress growth – stood at 0.15 µg/mL (≈ 0.36 µM).

`COc1cc(Cc2cnc(N)nc2N)cc(OC)c1OC` [TRIMETHOPRIM]: the MIC was 1 µg/mL (≈ 3.44 µM) against Pseudomonas aeruginosa [13]; 1 µg/mL (≈ 3.44 µM) in the test with Klebsiella pneumoniae [14]; 1 µg/mL (≈ 3.44 µM) against Pseudomonas fluorescens [15]; 1 µg/mL (≈ 3.44 µM) against Klebsiella aerogenes [16]; 0.5 µg/mL (≈ 1.72 µM) against Enterococcus faecalis [17]; 1 µg/mL (≈ 3.44 µM) in the test with Staphylococcus aureus [18]. This compound had an MIC against Bacillus subtilis [30] of 1 µg/mL (≈ 3.44 µM). In addition, the zone of inhibition at 30 µg/disc in the test on Bacillus subtilis [19] came out at 20 mm; in the test on Bacillus cereus [20] it was 0 mm; in the test with Enterococcus faecalis [21], 27 mm; with Staphylococcus aureus [22] it was 37 mm; with Candida albicans [23], 0 mm; with Pseudomonas aeruginosa [24] it was 31 mm. The zone of inhibition at 30 µg/disc in the test on Escherichia coli [25] came to 0 mm; with Klebsiella pneumoniae [26] it was 0 mm; with Klebsiella aerogenes [27], 28 mm; in the test on Pseudomonas fluorescens [28] it was 0 mm; in test [29], 29 mm.

Consider `CN(C)[C@@H]1C(O)=C(C(N)=O)C(=O)[C@@]2(O)C(O)=C3C(=O)c4c(O)cccc4[C@@](C)(O)[C@H]3C[C@@H]12` [TETRACYCLINE], for which the MIC worked out at 0.125 µg/mL (≈ 0.281 µM) against Pseudomonas aeruginosa [13]; 0.075 µg/mL (≈ 0.169 µM) in the test with Escherichia coli [31]; 0.15 µg/mL (≈ 0.338 µM) in the test with Klebsiella pneumoniae [14]; 0.125 µg/mL (≈ 0.281 µM) with Pseudomonas fluorescens [15]; 0.15 µg/mL (≈ 0.338 µM) with Klebsiella aerogenes [16]; 0.125 µg/mL (≈ 0.281 µM) in [32]. The minimal inhibitory concentration (MIC) came to 0.625 µg/mL (≈ 1.41 µM) with Enterococcus faecalis [17] and 0.075 µg/mL (≈ 0.169 µM) in the test with Bacillus subtilis [30]. For the same compound, the zone of inhibition at 30 µg/disc was determined as 26 mm with Bacillus subtilis [19]; 19 mm with Bacillus cereus [20]; 0 mm with Enterococcus faecalis [21]; 0 mm in the test with Staphylococcus aureus [22]; 0 mm in the test on Candida albicans [23]; 23 mm in the test on Pseudomonas aeruginosa [24]. Moreover, the zone of inhibition at 30 µg/disc worked out at 23 mm in the test on Escherichia coli [25]; 12 mm in the test on Klebsiella pneumoniae [26]; 0 mm in the test on Klebsiella aerogenes [27]; 19 mm with Pseudomonas fluorescens [28]; 19 mm in test [29].

Take NYSTATIN: it took 0.125 µg/mL to inhibit growth with Candida albicans [7] (MIC). Moreover, the inhibition zone (IZ) is 0 mm in the test with Bacillus subtilis [19]; 0 mm in the test with Bacillus cereus [20]; 0 mm with Enterococcus faecalis [21]; 0 mm with Staphylococcus aureus [22]; 18 mm in the test on Candida albicans [23]; 0 mm with Pseudomonas aeruginosa [24]. Besides, the inhibition zone (IZ) (with Escherichia coli [25]; in the test with Klebsiella pneumoniae [26]; in the test on Klebsiella aerogenes [27]; with Pseudomonas fluorescens [28]; in test [29]) was 0 mm each time.

(Values after ChEMBL document CHEMBL3044670, “Aromatic sulfonyl hydrazides and sulfonyl hydrazones: antimicrobial activity and physical properties” (2013).)
